Reference: patent US5427922A (Takeda Chemical Industries, Ltd., priority 1992, dated 1995)
Residue numbers refer to the chain shown, from its start. Each block holds one molecule with its values, some of them ahead of it.

Columns and labels:
[1] = molecular target: T1, full-length Ang II type 1 receptor of human placental origin (Homo sapiens, UniProt P30556); details: 10 μM forskolin in place of Ang II; CHO/pHARp306
T1 sequence (P30556 1-359 Q187R/F204S/L205C/K232N/K240R/L268Q/C289W/R311K/Y312D/F313I): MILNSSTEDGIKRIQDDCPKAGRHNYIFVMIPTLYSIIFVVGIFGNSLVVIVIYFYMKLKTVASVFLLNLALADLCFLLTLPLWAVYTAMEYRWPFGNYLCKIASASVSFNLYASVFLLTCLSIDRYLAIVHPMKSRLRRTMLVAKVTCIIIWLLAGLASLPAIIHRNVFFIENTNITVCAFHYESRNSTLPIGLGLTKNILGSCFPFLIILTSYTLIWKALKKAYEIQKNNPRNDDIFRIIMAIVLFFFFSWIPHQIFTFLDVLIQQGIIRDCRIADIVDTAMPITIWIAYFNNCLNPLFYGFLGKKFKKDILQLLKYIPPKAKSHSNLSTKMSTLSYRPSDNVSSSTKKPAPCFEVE
Description: (§1) To each well of a 24 well petri dish, a DMEM medium containing 10% (v/v) dialyzed FCS and 35 μg/ml L-proline was added, and 1×10^5 CHO/pHAR306 cells were inoculated. […] After the reaction mixture was removed using an aspirator, 500 μl of a 5% (w/v) trichloroacetic acid solution was added to each well to stop the reaction. The amount of cAMP was measured by EIA (cAMP enzyme immunoassay system, produced by Amersham).

[2] = molecular target: T2, full-length Ang II type 1 receptor of human heart origin (Homo sapiens, UniProt P30556); details: CHO/pHARt306
T2 sequence (P30556 1-359): T1 sequence (P30556 1-359 Q187R/F204S/L205C/K232N/K240R/L268Q/C289W/R311K/Y312D/F313I) with R187Q, S204F, C205L, N232K, R240K, Q268L, W289C, K311R, D312Y, I313F
Description: as §1

[3] = molecular target: T1, full-length Ang II type 1 receptor of human placental origin; experiment: Changes in intracellular inositol phosphate (IPs) concentration in CHO/pHARp306 cells; assay type: cell-based
Description: (§2) To each well of a 12 well petri dish, a DMEM medium containing 10% (v/v) dialyzed-FCS and 35 μg/ml L-proline was added, and 1×10^5 CHO/pHAR306 cells were inoculated. One day later, the medium was replaced with the same medium but containing 1 μCi/ml [^3 H]-labeled inositol (Amersham), and cultivation was continued for 24 hours. The petri dish was twice washed with a PBS buffer (FLOW Laboratories) containing 0.2% (w/v) BSA and then kept standing for 30 minutes, after which it was kept standing at 37° C. for 30 minutes in the presence of the same buffer but containing 10 mM lithium chloride. […] When the reaction time exceeded 30 seconds, the reaction mixture was removed using an aspirator, after which 1 ml of a 5% (w/v) trichloroacetic acid solution was added to each well to stop the reaction. When the reaction time was 5 to 30 seconds, 1 ml of a 10% (w/v) trichloroacetic acid solution was injected directly to each well to stop the reaction. The [^3 H]-labeled inositol phosphate (IPs) was separated using ion exchange column AG 1-X8 (Bio-Rad Laboratories). […] The radioactivity of each fraction was determined using a liquid scintillation counter.

[4] = molecular target: T1, full-length Ang II type 1 receptor of human placental origin; experiment: Ang II binding activity of isolated CHO cell clone (method of Example 9); details: CHO/pHARp306 clone
Description: After the mixture was thrice washed with TSMB buffer, cells were solubilized with 1N sodium hydroxide (1 ml), and their radioactivity was determined using a γ-ray counter.

[5] = molecular target: T2, full-length Ang II type 1 receptor of human heart origin; details: CHO/pHARt306; remark: listed apart in the source
Description: as §2

[6] = molecular target: T3, Ang II type 1 receptor from human placenta (Homo sapiens, UniProt P30556); experiment: Radio-labeled Ang II binding activity in animal cells (COS7/pHARp306) expressing full-length Ang II type 1 receptor gene from human placenta; details: 10 μM agonist or antagonist added; 100 pM [125I]-Ang II; room temperature, 60 minutes; control (none) 84,148 cpm
T3 sequence (P30556 1-359 Q187R/F204S/L205C/K232N/K240R/L268Q/C289W/R311K/Y312D/F313I): T1 sequence (P30556 1-359 Q187R/F204S/L205C/K232N/K240R/L268Q/C289W/R311K/Y312D/F313I)
Description: To each well of a 6 well petri dish, 2 ml of a DMEM medium (produced by DIFCO) containing 5% (v/v) FCS was added, and 5×10^4 COS7 cells were seeded. After incubation at 37° C. in the presence of 5% carbon dioxide for two days, the medium was aspirated and twice washed with DMEM medium.

[7] = molecular target: T4, Ang II type 1 receptor of human placental origin (Homo sapiens, UniProt P30556); experiment: Binding of radiolabeled Ang II (competition) using membrane fraction of CHO/pHARp306 cells; details: [125I]-Ang II, 22° C., 45 minutes
T4 sequence (P30556 1-359 Q187R/F204S/L205C/K232N/K240R/L268Q/C289W/R311K/Y312D/F313I): T1 sequence (P30556 1-359 Q187R/F204S/L205C/K232N/K240R/L268Q/C289W/R311K/Y312D/F313I)
Description: All measurements were performed in a series of three runs. […] An aliquot of membrane fraction equivalent to 10 μg of protein was suspended in a 0.1% (w/v) BSA solution containing 25 mM Tris (pH 7.6) and 5 mM magnesium chloride, to yield a 194 μl suspension. […] After 45 minutes of reaction, the reaction mixture was aspirated onto a glass filter, which was washed with 4 ml of ice-cooled Tris (pH 7.6), and the residual radioactivity on the glass filter was measured using a γ-ray counter. The final sample concentration was varied over a range of from 1 pM to 10 μM. In the measurement, the amount of non-specific binding was defined as 0%, and the maximum mount of binding in the absence of sample defined as 100%. With this regard, the -log (M) value of the sample concentration (M) resulting in 50% binding was defined as IC50 value.

[8] = molecular target: T5, Ang II type 1 receptor of human heart origin (Homo sapiens, UniProt P30556); experiment: Binding of radiolabeled Ang II (competition) using membrane fraction of control CHO/pHARt306 cells; details: for Competition; IC50 [-log(M)]: membrane fraction of CHO/pHARt306 (human heart origin), [125I]-Ang II, 22° C., 45 minutes
T5 sequence (P30556 1-359): T1 sequence (P30556 1-359 Q187R/F204S/L205C/K232N/K240R/L268Q/C289W/R311K/Y312D/F313I) with R187Q, S204F, C205L, N232K, R240K, Q268L, W289C, K311R, D312Y, I313F
Description: All measurements were performed in a series of three runs. […] An aliquot of membrane fraction equivalent to 10 μg of protein was suspended in a 0.1% (w/v) BSA solution containing 25 mM Tris (pH 7.6) and 5 mM magnesium chloride, to yield a 194 μl suspension. […] After 45 minutes of reaction, the reaction mixture was aspirated onto a glass filter, which was washed with 4 ml of ice-cooled Tris (pH 7.6), and the residual radioactivity on the glass filter was measured using a γ-ray counter. The final sample concentration was varied over a range of from 1 pM to 10 μM. In the measurement, the amount of non-specific binding was defined as 0%, and the maximum mount of binding in the absence of sample defined as 100%. With this regard, the -log (M) value of the sample concentration (M) resulting in 50% binding was defined as IC50 value. A membrane fraction was also extracted from control CHO/pHARt306 cells in the same manner as above, and assayed using the same assay system.

[9] = system: Ang II receptor; details: cited from earlier work
[10] = system: ACE; details: at suppressive doses for a high concentration (10 μM) of Ang II; cited from earlier work
[11] = system: type 1 receptors; details: cited from earlier work
[12] = system: reactions of KCl, norepinephrine, isoproterenol, vasopressin, bradykinin, acetylcholine or 5-HT; details: at suppressive doses for a high concentration (10 μM) of Ang II; cited from earlier work
[13] = system: full-length Ang II type 1 receptor from human placenta; experiment: Change in intracellular calcium ion concentration in CHOdhfr-/pHARp206 cells (Fura-2AM fluorescence); assay type: cell-based; details: final concentration 1 μM, 37° C.
Description: To each of two collagen-treated slide glasses (1×4 cm) in a 6 cm petri dish, 4 ml of an ASF104 medium (produced by Ajinomoto) containing 5% (v/v) FCS (fetal calf serum) was added, and 5×10^5 CHOdhfr- cells were seeded. After incubation at 37° C. in the presence of 5% carbon dioxide for one day, the medium was aspirated and twice washed with ASF104 medium. 5 μg of the above plasmid pHARp206 was dissolved in 50 μl of HBS buffer (8.0 g/l sodium chloride, 380 mg/l potassium chloride, 200 mg/l disodium monohydrogen phosphate, 5.9 g/l HEPES, 15 mg/l calcium chloride dihydrate, 10 mg/l magnesium chloride hexahydrate, pH 7.45). […]
After the above transformant cells CHOdhfr-/pHARp206 were twice washed with HEPES buffer (140 mM sodium chloride, 5 mM potassium chloride, 1 mM magnesium sulfate, 1 mM disodium monohydrogen phosphate, 1 mM calcium chloride, 25 mM glucose, 25 mM HEPES; pH 7.2), 4 ml of a HEPES buffer containing 4 μM Fura-2AM (Dojin Kagaku) was added, and the mixture was kept standing at 15° C. in the dark for 80 minutes. […] Fluorescence at a wavelength of 505 nm, generated upon excitation with ultraviolet rays of wavelengths of 340 nm and 380 nm, was measured.

[14] = system: type 2 receptors; details: cited from earlier work

- formation of cAMP [1]: about 80 pmol/well
- formation of cAMP ([2]; 10 μM forskolin in place of Ang II): about 80 pmol/well
Molecule: C=C[C@@]1(C)CC(=O)[C@]2(O)[C@@]3(C)[C@@H](O)CCC(C)(C)[C@@H]3[C@H](O)[C@H](OC(C)=O)[C@@]2(C)O1 [forskolin]

- affinity to Ang II [4]: high affinity
- Radioactivity (bound [125I]-labeled Ang II) [6]: 676 cpm
Molecule: Ang II
- total IPs production, dose response ([3]; 20 minutes after stimulation, final Ang II 1 pM to 10 μM, FIG. 7B): IPs production was suppressed in response to stimulation with high concentrations of Ang II
- IPs production, time course ([3]; Ang II 100 nM, 37° C., FIG. 6): a transient rise in IP3 concentration occurred, followed by formation of IP2 and IP1 in this order
- total IPs production, dose response ([5]; 20 minutes after stimulation, final Ang II 1 pM to 10 μM, FIG. 7A): IPs production was not suppressed even in the presence of high concentrations of Ang II
- IPs production, time course ([5]; Ang II 100 nM, 37° C.): the same IPs production pattern as with CHO/pHARp306 cells
- suppression of forskolin-stimulated cAMP production ([2]; 1 pM to 10 μM Ang II plus 10 μM forskolin, 10 minutes, FIG. 8A): cAMP production suppression depending on Ang II concentration

- Radioactivity (bound [125I]-labeled Ang II) [6]: 670 cpm
- Competition; IC50 [-log(M)], column A (second; B in text) [7]: 9.07 -log(M)
- Competition; IC50 [-log(M)] [8]: 7.57 -log(M)
Molecule: Ang III: amino acid number of Ang III is lower by 1 than that of Ang II; used as agonist

- Competition; IC50 [-log(M)], column A (second; B in text) [7]: 9.61 -log(M)
- IC50 ([8]; read-out: Competition, IC50 [-log(M)] (converted)): 3.31e-10 M
Molecule: CCOc1nc2cccc(C(=O)O)c2n1Cc1ccc(-c2ccccc2-c2nn[nH]n2)cc1 [CV-11974]

Molecule: CCCCc1nc(Cl)c(CC(=O)[O-])n1Cc1ccccc1[N+](=O)[O-].[Na+] [CV2961]
- Ang II receptor antagonist activity [9]: found to possess Ang II receptor antagonist activity

Molecule: CCCCc1nc(Cl)c(CO)n1Cc1ccc(-c2ccccc2-c2nn[nH]n2)cc1 [DuP753]
- effect on ACE action [10]: no effect
- antagonism of type 1 receptors [11]: antagonistic
- specificity of action on Ang II receptors ([9]; vascular wall, adrenal cortex and other organs): act specifically on Ang II receptors in the vascular wall, adrenal cortex and other organs to suppress Ang II action only
- effect on reactions of KCl, norepinephrine, isoproterenol, vasopressin, bradykinin, acetylcholine or 5-HT [12]: no effect

Molecule: endothelin 1: endothelin 1 (CSCSSLMDKECVYFCHLDIIW)
- change in fluorescence (intracellular Ca ion concentration) [13]: no change occurred in fluorescence

- Radioactivity (bound [125I]-labeled Ang II) [6]: 69,980 cpm
- Competition; IC50 [-log(M)], column A (second; B in text) [7]: 5.49 -log(M)
- Competition; IC50 [-log(M)] [8]: < 6.00 -log(M)
Molecule: Cc1cc(Cn2cnc3c2CC(C(=O)O)N(C(=O)C(c2ccccc2)c2ccccc2)C3)ccc1N (stereo not drawn) [PD123177]
- antagonism of type 2 receptors [14]: antagonistic
